{"source": "patent US20240272142A1", "about": "“METHOD FOR DETERMINING WHITENING EFFICACY OF COSMETIC RAW MATERIAL AND USE THEREOF” (SHENZHEN INSTITUTE FOR DRUG CONTROL (SHENZHEN TESTING …, priority 2023, published 2024)", "system": "mouse melanoma cells B16-F10", "assay": "Relative melanin content of B16-F10 cells after 24 h stimulation with α-MSH (Example 1)", "format": "cell-based", "settings": "absorbance at 405 nm relative to blank group, three replicate values", "procedure": "The results in the examples of the present disclosure are all expressed in terms of a relative melanin content: the relative melanin content=absorbance of the experimental group/absorbance of the blank group×100%.\n• (1) A cell suspension of B16-F10 cells in a logarithmic growth phase was inoculated into 6-well plates in a cell density of 2×10^5 cells/mL, with an amount being 2 mL in each well, and then added into a 5% carbon dioxide incubator and cultured at a temperature of 37° C. for 24 h. • (2) A medium contained in the 6-well plates was removed, the B16-F10 cells were washed with 2 mL of the PBS, 2 mL of substances from each of the following groups each were added into each well of the 6-well plates, and then cultured in the 5% carbon dioxide incubator at a temperature of 37° C. for 24 h.\nBlank group: 2 mL of a basal DMEM was added into each well.\nModel group: 2 mL of a-MSH solutions with different concentrations (0.5 μM, 1 μM, 2.5 μM, 5 μM, and 10 μM) were separately added into each well. • (3) Determination of a relative melanin content: the basal DMEM in the 6-well plates was removed by using a sterile pipette, the B16-F10 cells were washed with 2 mL of the PBS, and digested with 400 μL of trypsin; then the digesting was terminated with 1 mL of a complete DMEM; the B16-F10 cells were collected into centrifuge tubes, and centrifuged at 2,500 rpm for 10 min; a resulting supernatant after centrifugation was discarded, the resulting B16-F10 cells were centrifuged with 1,000 μL of the PBS for a second time, 500 μL of a 1 mol/L NaOH solution (containing 10% of DMSO) was added into each of the centrifuge tubes, and subjected to water bath at a temperature of 80° C. for 1 h to obtain a product; 200 μL of the product was transferred into a 96-well plate, an absorbance at 405 nm was determined and calculated to obtain the relative melanin content.", "note": "Several values for one entry are separate records, joined by “and”; a condition that tells them apart may be missing. Equal entries are not always repeated.", "data": [{"substance": "α-melanocyte-stimulating hormone [α-MSH]", "values": [{"measurement": "Relative melanin content", "setting": "α-MSH 0.5 μM", "result": "102.51% and 111.76% and 97.21%"}, {"measurement": "Relative melanin content", "setting": "α-MSH 1.0 μM", "result": "104.65% and 100.54% and 103.16%"}, {"measurement": "Relative melanin content", "setting": "α-MSH 2.5 μM", "result": "98.75% and 98.22% and 102.18%"}, {"measurement": "Relative melanin content", "setting": "α-MSH 5.0 μM", "result": "96.79% and 97.45% and 95.71%"}, {"measurement": "Relative melanin content", "setting": "α-MSH 10 μM", "result": "111.71% and 108.05% and 112.79%"}]}]}
